The subject of assay [1] is wild-type HCT-116 cells. Briefly: Cell proliferation (MTS), wild-type HCT-116. The conditions noted are these: Homo sapiens, 240 h; wild-type HCT-116, 10 days with compound, MTS reading; read-out: IC50 HCT116 WT. It counts as cell-based. On the procedure: (§1) MTAP^-/- HCT-116 and wild-type HCT-116 cell strains were cultured in complete medium McCoy's 5A (Gibco, 16600082)/10% FBS (Gibco, 10099141C)/1% p/s (Gibco, 15140122) to evaluate the enhanced inhibitory effect of the compounds against the proliferation selectivity of MTAP^-/- HCT-116 cells. On day 0, MTAP^-/- HCT-116 cells or wild-type HCT-116 cells were added to a 96-well cell culture plate (Corning, 3599) at 100 cells/well, and the plate was incubated in an incubator at 37 °C with 5% CO2. The compound was diluted in a 3-fold gradient with DMSO (Sigma, D5879) (initial concentration: 20 µM, 3-fold dilution, 8 concentration points in total). On day 1, the compound was diluted to multiple concentration points, and the cells were treated separately and incubated in the incubator at 37 °C with 5% CO2 for another 10 days. On Day 11, 20 µL of MTS (CellTiter 96® AQueous One Solution Cell Proliferation Assay) (Promega, G3581) was added to each well. […] In the formula, Y represents the inhibition rate, X represents the logarithm of the compound concentration, Top represents the maximum response (the inhibition rate at the maximum compound concentration), Bottom represents the baseline response (the inhibition rate where the compound concentration was 0), Hill Slope represents the slope of the IC50 curve, and IC50 represents the half maximal inhibitory concentration. Table 1. IC50 (µM)

Assay [2] has as its system MTAP^-/- HCT-116 cells. As to the kind of experiment: Cell proliferation (MTS), MTAP-/- HCT-116. To be noted: for Selectivity: HCT116 WT IC50 relative to HCT116 MTAP-/- IC50; for IC50: Homo sapiens, 240 h, MTAP-/- HCT-116, 10 days with compound, MTS reading, read-out: IC50 HCT116 MTAP-/-. In kind it is cell-based, human.
Text: The colon cancer cell strain HCT-116 (purchased from Nanjing Cobioer) was co-transfected with the gene editing tool CRISPR/Cas9 and sgRNA, and the MTAP^-/- HCT-116 cell strain with biallelic inactivation of MTAP was obtained by assays such as Western Blotting and Sanger sequencing. The MTAP^-/- HCT-116 cell strain was used for compound selectivity screening and evaluation based on the synergistic mechanism of MTAP deletion and PRMT5, including a symmetric dimethylarginine (SDMA) level test, a cell proliferation test, and the like.
as §1, with “On” for “MTAP^-/- HCT-116 and wild-type HCT-116 cell strains were cultured in complete medium McCoy's 5A (Gibco, 16600082)/10% FBS (Gibco, 10099141C)/1% p/s (Gibco, 15140122) to evaluate the enhanced inhibitory effect of the compounds against the proliferation selectivity of MTAP^-/- HCT-116 cells. On”, “concentration.” for “concentration. Table 1. IC50 (µM)”

`CN(C(=O)c1cc2c(cc1F)nc(N)c1cnn(C)c12)C1COc2cc(C#Cc3cn(C)nc3Cl)ccc21` (stereo not drawn) [Compound 24, 4-amino-N-(6-((3-chloro-1-methyl-1H-pyrazol-4-yl)ethynyl)-2,3-dihydrobenzofuran-3-yl)-7-fluoro-N,1-dimethyl-1H-pyrazolo[4,3-c]quinoline-8-carboxamide]: the IC50 was determined as 115 nM in assay [1] and 1.9 nM in assay [2]. In addition, the Selectivity in assay [2] is 61.
For the molecule `Cc1nn(C)cc1C#Cc1ccc2c(c1)OCC2N(C)C(=O)c1cc2c(cc1F)nc(N)c1cnn(C)c12` (stereo not drawn) [Compound 25, 4-amino-N-(6-((1,3-dimethyl-1H-pyrazol-4-yl)ethynyl)-2,3-dihydrobenzofuran-3-yl)-7-fluoro-N,1-dimethyl-1H-pyrazolo[4,3-c]quinoline-8-carboxamide], the IC50 in assay [1] was 471 nM. For the same molecule, in assay [2], the Selectivity is on record as 100 and the IC50 was 4.7 nM.
In the same order, the values of `CCN(C(=O)c1cc2c(cc1F)nc(N)c1cnn(C)c12)C1COc2cc(C#Cc3cnn(C)c3)ccc21` (stereo not drawn) [Compound 27, 4-amino-N-ethyl-7-fluoro-1-methyl-N-(6-((1-methyl-1H-pyrazol-4-yl)ethynyl)-2,3-dihydrobenzofuran-3-yl)-1H-pyrazolo[4,3-c]quinoline-8-carboxamide] are 185 nM, 58 and 3.2 nM.
`Cc1c(C#Cc2ccc3c(c2)OCC3N(C)C(=O)c2ccc3nc(N)c4cnn(C)c4c3c2)cnn1C` (stereo not drawn) [Compound 29, 4-amino-N-(6-((1,5-dimethyl-1H-pyrazol-4-yl)ethynyl)-2,3-dihydrobenzofuran-3-yl)-N,1-dimethyl-1H-pyrazolo[4,3-c]quinoline-8-carboxamide]: the IC50 in assay [1] was 1500 nM. Also, in assay [2], the Selectivity is 153 and the IC50 was 9.8 nM.
For `Cc1c(C#Cc2ccc3c(c2)OC[C@H]3N(C)C(=O)c2ccc3nc(N)c4cnn(C)c4c3c2)cnn1C` [Compound 29A, (S)-4-amino-N-(6-((1,5-dimethyl-1H-pyrazol-4-yl)ethynyl)-2,3-dihydrobenzofuran-3-yl)-N,1-dimethyl-1H-pyrazolo[4,3-c]quinoline-8-carboxamide], in assay [1], the IC50 is 480 nM. Further, in assay [2], the Selectivity is recorded as 133 and the IC50 came to 3.6 nM.
Regarding `CN(C(=O)c1ccc2nc(N)c3cnn(C)c3c2c1)[C@@H]1COc2cc(C#Cc3cnn(C(F)F)c3)ccc21` [Compound 30A, (S)-4-amino-N-(6-((1-(difluoromethyl)-1H-pyrazol-4-yl)ethynyl)-2,3-dihydrobenzofuran-3-yl)-N,1-dimethyl-1H-pyrazolo[4,3-c]quinoline-8-carboxamide], the IC50 in assay [1] worked out at 240 nM. In addition, in assay [2], the Selectivity turned out to be 83 and the IC50 is 2.9 nM.
The like results for `CN(C(=O)c1ccc2nc(N)c3cnn(C)c3c2c1)C1COc2cc(C#Cc3cn(C)nc3C(F)(F)F)ccc21` (stereo not drawn) [Compound 31, 4-amino-N,1-dimethyl-N-(6-((1-methyl-3-(trifluoromethyl)-1H-pyrazol-4-yl)ethynyl)-2,3-dihydrobenzofuran-3-yl)-1H-pyrazolo[4,3-c]quinoline-8-carboxamide] were, in that order, 1460 nM, 102 and 14.2 nM.
The like results for `CN(C(=O)c1ccc2nc(N)c3cnn(C)c3c2c1)[C@@H]1COc2cc(C#Cc3cn(C)nc3C(F)(F)F)ccc21` [Compound 31A, (S)-4-amino-N,1-dimethyl-N-(6-((1-methyl-3-(trifluoromethyl)-1H-pyrazol-4-yl)ethynyl)-2,3-dihydrobenzofuran-3-yl)-1H-pyrazolo[4,3-c]quinoline-8-carboxamide] were, in that order, 192 nM, 58 and 3.3 nM.
As for `CN(C(=O)c1cc2c(cc1F)nc(N)c1cnn(C)c12)C1COc2cc(C#Cc3cn(C)nc3C(F)(F)F)ccc21` (stereo not drawn) [Compound 32, 4-amino-7-fluoro-N,1-dimethyl-N-(6-((1-methyl-3-(trifluoromethyl)-1H-pyrazol-4-yl)ethynyl)-2,3-dihydrobenzofuran-3-yl)-1H-pyrazolo[4,3-c]quinoline-8-carboxamide], the IC50 in assay [1] came to 2270 nM. In assay [2], the Selectivity came out at 103 and the IC50 worked out at 22 nM.
Take `CN(C(=O)c1cc2c(cc1F)nc(N)c1cnn(C)c12)C1COc2nc(C#Cc3cnn(C)c3)ccc21` (stereo not drawn) [Compound 33, 4-amino-7-fluoro-N,1-dimethyl-N-(6-((1-methyl-1H-pyrazol-4-yl)ethynyl)-2,3-dihydrofuro[2,3-b]pyridin-3-yl)-1H-pyrazolo[4,3-c]quinoline-8-carboxamide]: the IC50 in assay [1] came out at 567 nM; in assay [2], 4.4 nM. Moreover, the Selectivity in assay [2] is 129.
Take `CN(C(=O)c1ccc2nc(N)c3cnn(C)c3c2c1)C1COc2cc(C#Cc3cn(C)nc3Cl)ccc21` (stereo not drawn) [Compound 34, 4-amino-N-(6-((3-chloro-1-methyl-1H-pyrazol-4-yl)ethynyl)-2,3-dihydrobenzofuran-3-yl)-N,1-dimethyl-1H-pyrazolo[4,3-c]quinoline-8-carboxamide]: the IC50 in assay [1] stood at 1140 nM. For the same molecule, in assay [2], the Selectivity was 150 and the IC50 turned out to be 7.6 nM.
In the case of `CN(C(=O)c1ccc2nc(N)c3cnn(C)c3c2c1)[C@@H]1COc2cc(C#Cc3cn(C)nc3Cl)ccc21` [Compound 34A, (S)-4-amino-N-(6-((3-chloro-1-methyl-1H-pyrazol-4-yl)ethynyl)-2,3-dihydrobenzofuran-3-yl)-N,1-dimethyl-1H-pyrazolo[4,3-c]quinoline-8-carboxamide], the IC50 in assay [1] was 266 nM. Moreover, in assay [2], the Selectivity was 133 and the IC50 is 2 nM.
In the same order, the values of `CN(C(=O)c1cc2c(cc1F)nc(N)c1cnn(C)c12)C1COc2cc(C#Cc3ccnn3C)ccc21` (stereo not drawn) [Compound 36, 4-amino-7-fluoro-N,1-dimethyl-N-(6-((1-methyl-1H-pyrazol-5-yl)ethynyl)-2,3-dihydrobenzofuran-3-yl)-1H-pyrazolo[4,3-c]quinoline-8-carboxamide] are 1730 nM, 126 and 13.7 nM.
Regarding `Cc1cn(C)nc1C#Cc1ccc2c(c1)OCC2N(C)C(=O)c1cc2c(cc1F)nc(N)c1cnn(C)c12` (stereo not drawn) [Compound 37, 4-amino-N-(6-((1,4-dimethyl-1H-pyrazol-3-yl)ethynyl)-2,3-dihydrobenzofuran-3-yl)-7-fluoro-N,1-dimethyl-1H-pyrazolo[4,3-c]quinoline-8-carboxamide], the IC50 in assay [1] was found to be 2040 nM. For the same molecule, in assay [2], the Selectivity is listed as 93 and the IC50 worked out at 22 nM.
The like results for `CN(C(=O)c1cc2c(cc1F)nc(N)c1cnn(C)c12)C1COc2cc(C#Cc3cnn(C(F)F)c3)ccc21` (stereo not drawn) [Compound 41, 4-amino-N-(6-((1-(difluoromethyl)-1H-pyrazol-4-yl)ethynyl)-2,3-dihydrobenzofuran-3-yl)-7-fluoro-N,1-dimethyl-1H-pyrazolo[4,3-c]quinoline-8-carboxamide] were, in that order, 1780 nM, 129 and 13.8 nM.
With `CN(C(=O)c1cc2c(cc1F)nc(N)c1cnn(C)c12)C1COc2cc(C#Cc3cnccc3C(F)F)ccc21` (stereo not drawn) [Compound 42, 4-amino-N-(6-((4-(difluoromethyl)pyridin-3-yl)ethynyl)-2,3-dihydrobenzofuran-3-yl)-7-fluoro-N,1-dimethyl-1H-pyrazolo[4,3-c]quinoline-8-carboxamide], the IC50 in assay [1] is 785 nM; in assay [2], 18.5 nM. Besides, in assay [2], the Selectivity worked out at 42.

The values above are taken from patent EP4755886A1 (Chengdu Chipscreen Pharmaceutical Ltd., priority 2023, dated 2025).
